Experimental data: patent publication US6399335B1, “γ-phosphoester nucleoside triphosphates” (Advanced Research and Technology Institute, Inc., priority 1999, dated 2002)

Columns and labels:
[1] = Stability of PNP-NTPs in plasma (PNP release, absorbance at 405 nm)
Text: (§1) To test the effect of more complex, biologically relevant mixtures of enzymes on PNP-NTP stability, blood was collected and centrifuged to remove cells and collect the plasma.

[2] = target: T7 DNA-dependent RNA polymerase (Escherichia phage T7, UniProt P00573); assay: Colorimetric RNA synthesis / PNP release assay; assay type: biochemical
Chain of T7 DNA-dependent RNA polymerase (P00573 whole entry): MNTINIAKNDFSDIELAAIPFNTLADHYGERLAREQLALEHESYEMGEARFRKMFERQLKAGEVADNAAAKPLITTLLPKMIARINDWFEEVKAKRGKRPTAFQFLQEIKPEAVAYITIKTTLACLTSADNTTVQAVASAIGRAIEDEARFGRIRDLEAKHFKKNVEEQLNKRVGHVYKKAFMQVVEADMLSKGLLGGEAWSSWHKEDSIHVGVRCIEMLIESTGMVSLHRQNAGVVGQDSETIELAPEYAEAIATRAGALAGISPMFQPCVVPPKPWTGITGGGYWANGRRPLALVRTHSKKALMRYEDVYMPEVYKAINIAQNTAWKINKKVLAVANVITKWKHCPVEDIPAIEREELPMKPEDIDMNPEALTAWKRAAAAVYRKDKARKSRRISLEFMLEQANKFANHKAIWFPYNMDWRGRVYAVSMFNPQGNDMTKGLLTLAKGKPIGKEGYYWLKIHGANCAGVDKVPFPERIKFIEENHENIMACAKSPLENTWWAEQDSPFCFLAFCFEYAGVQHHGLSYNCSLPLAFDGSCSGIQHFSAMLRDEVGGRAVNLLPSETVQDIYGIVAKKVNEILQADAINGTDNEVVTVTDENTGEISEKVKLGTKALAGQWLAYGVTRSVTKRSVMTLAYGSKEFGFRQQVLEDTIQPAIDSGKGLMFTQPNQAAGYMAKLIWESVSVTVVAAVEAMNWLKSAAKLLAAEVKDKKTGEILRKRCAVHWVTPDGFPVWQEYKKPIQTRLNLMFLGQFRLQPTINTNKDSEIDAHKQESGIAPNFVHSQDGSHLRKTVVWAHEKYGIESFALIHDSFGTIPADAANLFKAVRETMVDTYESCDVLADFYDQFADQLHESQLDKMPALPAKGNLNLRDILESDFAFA
Description: Production of the PNP-NTP analogs. PNP-GTP and PNP-ATP are made in one high yielding reaction from commercially available starting materials (Scheme 1). When the nucleotide analog is used in RNA synthesis, the β and γ phosphates are released (as pyrophosphate) with the attached PNP. While this compound is colorless, the enzyme alkaline phosphatase rapidly hydrolyzes the pyrophosphates to release PNP, which, at the pH of the polymerase reaction, has a yellow color that absorbs maximally at […]. [drawing 4] […]
PNP-NTPs are useful as continuous reporters for RNA polymerase activity. To simplify the components, transcription reactions were performed in the presence of alkaline phosphatase, a homodeoxycytidylate template that directs the incorporation of only guanylates (named WV-15C), PNP-GTP, and T7 RNA polymerase. The use of homopolymers is well accepted in assessing the activities of viral RNA polymerases, including the HCV RdRp (Lohman et al., 1997. J. Virol., 71, 8416). The reaction was monitored in a spectrometer at […], the maximum absorbance for PNP. […] There were several negative controls in this experiment, all of which yielded minimal PNP release: 1) a reaction without T7 RNA polymerase; 2) a reaction that lacked the essential cofactor, Mg^2+; 3) a reaction that contained homothymidylate (WV-15T), rather than WV-15C. […]

[3] = target: brome mosaic virus RdRp (Brome mosaic virus, UniProt P03594); assay: RNA synthesis assay; assay type: biochemical
Chain of brome mosaic virus RdRp (P03594 whole entry): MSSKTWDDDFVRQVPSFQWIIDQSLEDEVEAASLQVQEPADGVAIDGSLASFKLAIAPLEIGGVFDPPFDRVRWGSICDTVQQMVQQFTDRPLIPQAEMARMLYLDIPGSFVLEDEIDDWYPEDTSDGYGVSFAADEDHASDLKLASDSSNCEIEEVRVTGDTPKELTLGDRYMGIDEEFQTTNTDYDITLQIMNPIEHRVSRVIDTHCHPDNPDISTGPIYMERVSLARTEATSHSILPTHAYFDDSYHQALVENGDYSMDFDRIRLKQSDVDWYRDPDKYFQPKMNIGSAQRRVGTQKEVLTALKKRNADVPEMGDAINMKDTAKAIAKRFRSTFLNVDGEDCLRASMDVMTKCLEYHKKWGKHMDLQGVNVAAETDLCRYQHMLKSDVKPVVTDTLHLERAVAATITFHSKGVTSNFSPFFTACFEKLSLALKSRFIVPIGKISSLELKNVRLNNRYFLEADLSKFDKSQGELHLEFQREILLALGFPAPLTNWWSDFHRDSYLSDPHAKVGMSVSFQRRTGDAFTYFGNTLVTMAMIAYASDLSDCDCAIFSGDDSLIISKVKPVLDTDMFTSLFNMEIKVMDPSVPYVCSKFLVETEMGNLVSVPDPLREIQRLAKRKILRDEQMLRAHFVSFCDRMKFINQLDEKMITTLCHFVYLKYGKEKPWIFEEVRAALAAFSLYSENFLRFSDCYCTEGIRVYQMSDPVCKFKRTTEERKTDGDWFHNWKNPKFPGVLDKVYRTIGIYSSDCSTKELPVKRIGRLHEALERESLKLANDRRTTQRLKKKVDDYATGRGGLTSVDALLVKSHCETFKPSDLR
Chain of brome mosaic virus RdRp (P03588 whole entry, further chain): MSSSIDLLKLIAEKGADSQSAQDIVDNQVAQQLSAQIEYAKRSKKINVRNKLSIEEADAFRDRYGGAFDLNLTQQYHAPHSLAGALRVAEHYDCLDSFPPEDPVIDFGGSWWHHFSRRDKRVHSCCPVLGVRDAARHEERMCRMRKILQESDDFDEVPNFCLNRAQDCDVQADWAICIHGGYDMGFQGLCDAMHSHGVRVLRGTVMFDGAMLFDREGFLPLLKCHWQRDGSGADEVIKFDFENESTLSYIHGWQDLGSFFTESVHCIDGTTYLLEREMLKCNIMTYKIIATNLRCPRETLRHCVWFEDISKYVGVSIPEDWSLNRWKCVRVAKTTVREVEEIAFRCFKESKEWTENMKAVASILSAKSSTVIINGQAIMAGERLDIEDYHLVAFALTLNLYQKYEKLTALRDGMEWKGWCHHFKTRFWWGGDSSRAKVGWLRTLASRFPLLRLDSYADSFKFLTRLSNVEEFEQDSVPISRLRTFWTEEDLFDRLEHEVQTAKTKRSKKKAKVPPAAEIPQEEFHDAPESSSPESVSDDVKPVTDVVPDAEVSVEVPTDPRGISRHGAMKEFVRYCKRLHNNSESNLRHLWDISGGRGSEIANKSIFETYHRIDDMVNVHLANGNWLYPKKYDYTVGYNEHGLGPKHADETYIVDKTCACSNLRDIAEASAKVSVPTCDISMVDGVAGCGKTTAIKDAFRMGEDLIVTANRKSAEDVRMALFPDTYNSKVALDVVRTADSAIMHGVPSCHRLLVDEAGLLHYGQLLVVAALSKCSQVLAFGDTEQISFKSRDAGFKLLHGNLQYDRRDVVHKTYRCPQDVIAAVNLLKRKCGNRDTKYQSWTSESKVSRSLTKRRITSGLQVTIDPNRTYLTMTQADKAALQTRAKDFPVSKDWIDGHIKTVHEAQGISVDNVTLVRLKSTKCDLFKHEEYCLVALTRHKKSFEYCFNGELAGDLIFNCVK
Text: (§2) PNP-NTPs are useful reporters for the activities of a variety of RNA polymerases. […] PNP release was also observed during RNA synthesis by the SP6 RNA polymerase.

[4] = target: RdRp of bovine viral diarrhea virus (Bovine viral diarrhea virus, UniProt P19711); assay: RNA synthesis assay; assay type: biochemical; details: compared with T7 polymerase and brome mosaic virus RdRp results
Chain of RdRp of bovine viral diarrhea virus (P19711 3270-3988): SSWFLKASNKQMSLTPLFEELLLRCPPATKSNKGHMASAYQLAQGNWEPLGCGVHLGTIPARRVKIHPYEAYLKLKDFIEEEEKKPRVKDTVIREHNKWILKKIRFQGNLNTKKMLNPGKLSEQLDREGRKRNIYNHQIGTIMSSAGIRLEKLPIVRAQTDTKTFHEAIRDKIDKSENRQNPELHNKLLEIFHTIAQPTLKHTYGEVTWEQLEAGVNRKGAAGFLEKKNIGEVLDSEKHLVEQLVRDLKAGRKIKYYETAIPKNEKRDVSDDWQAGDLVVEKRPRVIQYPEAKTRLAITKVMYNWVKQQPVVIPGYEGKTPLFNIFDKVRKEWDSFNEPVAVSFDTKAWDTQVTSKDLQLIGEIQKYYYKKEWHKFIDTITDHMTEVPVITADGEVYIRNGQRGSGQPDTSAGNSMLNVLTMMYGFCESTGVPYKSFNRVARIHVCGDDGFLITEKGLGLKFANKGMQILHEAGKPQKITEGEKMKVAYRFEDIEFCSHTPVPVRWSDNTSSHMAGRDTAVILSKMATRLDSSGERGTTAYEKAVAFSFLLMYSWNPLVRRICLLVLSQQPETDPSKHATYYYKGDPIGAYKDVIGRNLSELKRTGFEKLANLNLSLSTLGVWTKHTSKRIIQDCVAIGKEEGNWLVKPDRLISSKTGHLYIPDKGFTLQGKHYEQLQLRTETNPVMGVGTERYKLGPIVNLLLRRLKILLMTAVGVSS
Text: as §2

[5] = tested on: alkaline phosphatase; details: incubation with alkaline phosphatase, without T7 RNA polymerase
Text: as §1

Row | SMILES | absorbance at 405 nm ([1]; plasma to 10% final volume, 7 h incubation) | PNP levels ([1]; plasma with alkaline phosphatase, polymerase and noncognate template, 7 hours) | substrate for the polymerase [2] | increase in absorbance due to PNP release ([2]; alkaline phosphatase, WV-15C homodeoxycytidylate template, monitored at 405 nM) | RNA synthesis directed when used in place of GTP ([2]; compared with normal GTP) | absorbance higher than background ([2]; complete transcription reaction with cognate template, 3 h after start) [fold] | absorbance vs background ([2]; ten minutes after start, alkaline phosphatase, WV-15C template, 405 nM) | substrate for the polymerase [3] | RNA synthesis directed when used in place of GTP ([3]; compared with normal GTP) | RNA synthesis directed when used in place of GTP [4] | PNP release / resistance to phosphatases [5] | trends in plasma reactions ([1]; WV-15T template, compared with PNP-GTP results) | increase in absorbance at 405 nm ([2]; homothymidylate template)
1 | Nc1nc2c(ncn2[C@@H]2O[C@H](COP(=O)(O)OP(=O)(O)OP(=O)(O)Oc3ccc([N+](=O)[O-])cc3)[C@@H](O)[C@H]2O)c(=O)[nH]1 [PNP-GTP, Guanosine-5′-(γ-4-nitrophenyl)triphosphate] | did not increase the absorbance at 405 nm | increased PNP levels slightly | suitable substrate | linear over a two-hour period | levels similar to reactions containing normal GTP | > 7 | absorbance at levels distinctly above background | suitable substrate | levels similar to reactions containing normal GTP | Identical results | did not result in PNP release |  | 
2 | Nc1ncnc2c1ncn2[C@@H]1O[C@H](COP(=O)(O)OP(=O)(O)OP(=O)(O)Oc2ccc([N+](=O)[O-])cc2)[C@@H](O)[C@H]1O [PNP-ATP, Adenosine-5′-(γ-4-nitrophenyl)triphosphate] |  |  |  |  |  |  |  |  |  |  |  | Identical trends | linear increase
